Data from PubChem BioAssay (NCI).
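Where inhibition never reached the appropriate level, the endpoint shown equals the highest concentration tested. Otherwise, values were interpolated linearly from a five-concentration, 48-hour dose response in 96-well plates. Here, GI50 denotes the concentration required for 50% inhibition of growth. TGI: concentration producing complete growth inhibition.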

What was measured:
Assay in all cases: growth of human tumour cells (NCI), 48 h
[1] = system: CAKI-1 renal
[2] = system: U251 CNS
[3] = system: OVCAR-3 ovarian
[4] = system: RPMI-8226 leukemia
[5] = system: SF-295 CNS
[6] = system: A549 NSCLC
[7] = system: SK-MEL-2 melanoma
[8] = system: UO-31 renal
[9] = system: M19-MEL melanoma
[10] = system: A498 renal

Compound	TGI [1]	TGI [2]	TGI [3]	TGI [4]	TGI [5]	TGI [6]	TGI [7]	TGI [8]	TGI [9]	TGI [10]	GI50 [1]	GI50 [2]	GI50 [3]	GI50 [4]	GI50 [5]	GI50 [6]	GI50 [7]	GI50 [8]	GI50 [9]	GI50 [10]
CCCN(CCCCC(NC(C)=O)C(=O)NCc1ccccc1)C(=O)NC (stereo not given)	> 100 µM	> 100 µM	> 100 µM	> 100 µM	> 100 µM	> 100 µM	> 100 µM	> 100 µM	> 100 µM	> 100 µM										
CC1(C)OC2C(=O)OC(COCc3ccccc3)C2O1 (stereo not given)	> 100 µM	> 100 µM	> 100 µM	> 100 µM	> 100 µM	> 100 µM	> 100 µM	> 100 µM	> 100 µM	> 100 µM										
Nc1ccc2c(c1)[O][Sn]([c]1ccccc1)([c]1ccccc1)[O]C2=O	10.5 µM	16.3 µM	15.9 µM	10.7 µM	14.5 µM	15.9 µM	17.6 µM	26 µM	23.9 µM	31.9 µM	4.89 µM	8.6 µM	6.79 µM	2.5 µM	6.38 µM	4.61 µM	6.19 µM	12.5 µM	11 µM	18 µM
CN(C)CCNC(=O)c1cc([N+](=O)[O-])cc2ccc(-c3ccccc3)nc12	> 40.4 µM	32 µM	54.3 µM	70.2 µM	> 57.3 µM	28 µM	28.7 µM	11.2 µM	20 µM	14.4 µM										
COc1cc2ccc3c4cc(OC)c(OCc5ccccc5)cc4cnc3c2cc1OC	> 100 µM	> 100 µM	> 100 µM	> 100 µM	> 100 µM	> 100 µM	> 100 µM	> 100 µM	> 100 µM	> 100 µM										
COc1ccc(N=Cc2ccc(N(CCC#N)CCC#N)cc2)cc1	> 100 µM	> 100 µM	> 100 µM	> 100 µM	> 100 µM	> 100 µM	> 84.2 µM	> 100 µM	> 91.8 µM	> 100 µM										
COc1cccc2c1C1=CC(=O)CCC1C(C)(C)O2 (stereo not given)	> 100 µM	> 100 µM	> 100 µM	50.4 µM	> 100 µM	> 100 µM	> 100 µM	> 100 µM	> 100 µM	> 100 µM										
